This note sets out measurements from US8008294B2 (AstraZeneca AB, priority 2006, dated 2011).

Where a name gives a salt, the structure may show the parent alone.

What all share (type): physicochemical
Data set [1] can be described thus: Solution stability (isotonic solution, HPLC analysis). As to conditions: 0.1 mg/ml isotonic solution, ascorbic acid 0.5% (w/v), pH 2 and 4, stored four weeks at 4 to 8° C.; citrate salt.
A short description of data set [2]: Hygroscopicity by Dynamic Vapour Sorption Analysis (DVS). The conditions noted are these: 25° C., citrate salt. As to the method:
Dynamic Vapour Sorption Analysis (DVS)
The studies were undertaken using Dynamic Vapour Sorption Appararatus (DVS, Surface Measurement Systems, London UK). The apparatus consists of Cahn micobalance housed inside a temperature-controled cabinet. All experiments were performed at 25° C. The DVS was used to characterize the moisture uptake (w/w %) at different relative humidities (RH). Samples (5-10 mg) were weighed directly into the DSV sample cup and exposed to different relative humidities.

A short description of data set [3]: Photo stability of bulk substance (Suntest CPS+ cabinet).
Procedure: The exposure was 250 Wh/m^2 and 1.2 million lux hours over 29 hours.
[4] abbreviates: 29 hours control sample (stored in the dark).
The mark [5] stands for this setting: exposure time 29 hours, 250 Wh/m^2 and 1.2 million lux hours.

As to `N#Cc1ccc2[nH]c(O)c(-c3ccc(CN4CCOCC4)cn3)c2c1` [Citrate, 2-Hydroxy-3-[5-(morpholin-4-ylmethyl)pyridin-2-yl]1H-indole-5-carbonitrile citrate salt], the degradation in solution entry in data set [1] was “no degradation products”. The figures for the moisture uptake in data set [2] (40% relative humidity), in data set [2] (60% relative humidity) and in data set [2] (80% relative humidity) were 7.1 w/w %, 7.6 w/w % and 8.0 w/w %, respectively. In addition, the “photo stability of bulk substance” value in data set [3] (29 hours control sample (stored in the dark), citrate salt) is 99.1; in data set [3] (exposure time 0 hours, citrate salt), 99.0; in data set [3] (exposure time 29 hours, 250 Wh/m^2 and 1.2 million lux hours, citrate salt), 98.1.
With `N#Cc1ccc2[nH]c(O)c(-c3ccc(CN4CCOCC4)cn3)c2c1` [HCl], the figures for the “photo stability of bulk substance” value in data set [3] (setting [4]), in data set [3] (exposure time 0 hours) and in data set [3] (setting [5]) were 97.7, 97.5 and 89.0, respectively.
`N#Cc1ccc2[nH]c(O)c(-c3ccc(CN4CCOCC4)cn3)c2c1` [Free base, 2-Hydroxy-3-[5-(morpholin-4-ylmethyl)pyridin-2-yl]1H-indole-5-carbonitrile]: the “photo stability of bulk substance” value in data set [3] (setting [4]) amounted to 96.1; in data set [3] (exposure time 0 hours), 96.6; in data set [3] (setting [5]) it was 83.8.
